Experimental data reported in ChEMBL document CHEMBL3259747, “Small chemicals with inhibitory effects on PtdIns(3,4,5)P3 binding of Btk PH domain” (Bioorg Med Chem Lett, 2014).

Experiments:
[1] = target: T1, Tyrosine-protein kinase BTK (Homo sapiens, UniProt Q06187); assay: Inhibition of PtdIns(3,4,5)P3 binding to Btk PH domain (unknown origin) expressed in Escherichia coli BL21(DE3) RIL cells at 100 uM by surface plasmon resonance assay relative to untreated control
Epsin-1 = target: T2, Epsin-1 (Homo sapiens, UniProt Q9Y6I3); assay: Inhibition of PtdIns(4,5)P2 binding to Epsin1 ENTH domain (unknown origin)
T2 sequence (Q9Y6I3 whole entry): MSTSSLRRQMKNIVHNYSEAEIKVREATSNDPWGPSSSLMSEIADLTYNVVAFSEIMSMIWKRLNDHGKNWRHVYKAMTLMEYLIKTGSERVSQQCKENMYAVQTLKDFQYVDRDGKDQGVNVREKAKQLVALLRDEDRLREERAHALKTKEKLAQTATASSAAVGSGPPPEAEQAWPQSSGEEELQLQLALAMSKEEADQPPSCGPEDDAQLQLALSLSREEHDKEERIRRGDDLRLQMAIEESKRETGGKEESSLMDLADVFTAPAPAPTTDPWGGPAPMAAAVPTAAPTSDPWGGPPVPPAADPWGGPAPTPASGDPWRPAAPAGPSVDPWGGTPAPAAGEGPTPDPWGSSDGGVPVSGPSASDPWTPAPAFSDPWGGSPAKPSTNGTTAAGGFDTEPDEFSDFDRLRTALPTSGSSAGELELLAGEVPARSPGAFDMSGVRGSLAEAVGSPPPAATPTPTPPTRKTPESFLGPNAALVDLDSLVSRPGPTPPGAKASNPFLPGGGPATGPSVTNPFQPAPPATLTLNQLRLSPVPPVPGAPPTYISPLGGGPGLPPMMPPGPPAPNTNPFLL

[2] = target: T1, Tyrosine-protein kinase BTK; assay: Inhibition of PtdIns(3,4,5)P3 binding to Btk PH domain (unknown origin) expressed in Escherichia coli BL21(DE3) RIL cells by surface plasmon resonance assay relative to untreated control

T1 sequence (Q06187 whole entry, the tested form may be a part): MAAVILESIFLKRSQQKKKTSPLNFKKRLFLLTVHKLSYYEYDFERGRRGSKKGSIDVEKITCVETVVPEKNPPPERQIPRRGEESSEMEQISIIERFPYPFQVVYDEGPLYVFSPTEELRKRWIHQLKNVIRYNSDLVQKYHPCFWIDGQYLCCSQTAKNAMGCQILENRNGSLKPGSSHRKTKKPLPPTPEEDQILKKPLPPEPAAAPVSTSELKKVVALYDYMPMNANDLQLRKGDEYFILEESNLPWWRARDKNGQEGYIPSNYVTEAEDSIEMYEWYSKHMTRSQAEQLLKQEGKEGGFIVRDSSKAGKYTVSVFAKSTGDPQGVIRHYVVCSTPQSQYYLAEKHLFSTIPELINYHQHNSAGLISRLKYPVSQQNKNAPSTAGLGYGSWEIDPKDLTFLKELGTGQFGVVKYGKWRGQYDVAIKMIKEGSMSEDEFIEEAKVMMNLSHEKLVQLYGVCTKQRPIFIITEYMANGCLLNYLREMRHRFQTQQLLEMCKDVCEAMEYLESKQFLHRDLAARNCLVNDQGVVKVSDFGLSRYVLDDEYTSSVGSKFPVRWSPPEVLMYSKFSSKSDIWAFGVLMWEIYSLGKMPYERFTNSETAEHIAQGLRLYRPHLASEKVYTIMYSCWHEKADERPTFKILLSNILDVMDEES

| SMILES | inhibition [1] [%] | IC50 (Epsin-1) [µM] | IC50 [2] [µM] |
| --- | --- | --- | --- |
| CCOP(=O)(O)c1cc(C(=O)O)[nH]n1 | 37 | – | – |
| O=C1[C@@H]2C[C@@H]3O[C@]2(C(O)C3O)[C@@H](P(=O)(O)O)N1Cc1ccccc1 (stereo partly drawn) | 13 | – | – |
| O=C1[C@@H]2C[C@@H]3O[C@]2(C(O)C3OP(=O)(O)O)[C@@H](P(=O)(O)O)N1Cc1ccccc1 (stereo partly drawn) | 11 | – | – |
| O=C(O)c1cc(P(=O)(O)O)n[nH]1 | 95 | 46 | 17 |
| CC1(C(=O)O)CC([PH](=O)O)=NN1 (stereo not drawn) | 71 | – | – |
| O=C1[C@@H]2C[C@H]3CC[C@@]2(O3)[C@@H](P(=O)(O)O)N1Cc1ccccc1 | 38 | – | – |

Second part, led by results:

| inhibition [1] [%] | SMILES | IC50 (Epsin-1) [µM] | IC50 [2] [µM] |
| --- | --- | --- | --- |
| 48 | COP(=O)(O)c1cc(C(=O)O)[nH]n1 | – | – |
| 34 | CCOP(=O)(O)c1n[nH]c(C(=O)O)c1C(=O)O | – | – |
| 64 | CC1(C(=O)O)NN=C(P(=O)(O)O)C1C(=O)O (stereo not drawn) | – | – |
| 41 | CCOP(=O)(O)C1=NNC(C)(C(=O)O)C1 (stereo not drawn) | – | – |
| 52 | COP(=O)(O)C1=NNC(C)(C(=O)O)C1 (stereo not drawn) | – | – |
